pEC50: −log10 of the molar value. Where two headings read alike, the source gives them in different places.
Test system: SMN2-linked luciferase-reporter gene construct
Assay: SMN splice reporter assay (SMN2-linked luciferase reporter, Example 10)
Assay type: cell-based
Settings: for maximal fold induction: read-out: SMN Splice Reporter Assay (Example 10) Avg MaxFold Increase
How it was run: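 Cervical carcinoma cells stably carrying an SMN2–luciferase splice reporter, in which luciferase is in frame only when SMN2 exon 7 is included, were treated with compound. Luciferase activity was read and expressed as fold increase over untreated transformed cells.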

[1] = SMN2-linked luciferase reporter, average
[2] = maximum fold increase of reporter signal, average

| pEC50 [1] | SMILES | maximal fold induction [2] | maximal fold induction (SMN2-linked luciferase reporter, average maximum fold increase) | SMN Splice Reporter Assay (Example 10) Avg MaxFold Increase [2] |
| --- | --- | --- | --- | --- |
| 5.93 | CCCCCOc1ccc2c(c1)C(=O)N(c1ccc(C(C)C(=O)O)cc1)C2 (stereo not shown) [ALB-113494] | 1.75 |  |  |
| 4.74 | CCCCCCc1cccc2c1C(=O)N(c1ccc(C(C)C(=O)O)cc1)C2 (stereo not shown) [ALB-113495] | 1.35 |  |  |
| 7.26 | CC(C)c1ccc2c(c1)C(=O)N(c1ccc(C(C)C(=O)O)cc1)C2 (stereo not shown) [ALB-113563] | 1.8 |  |  |
| 5.29 | CC(C(=O)O)c1ccc(N2Cc3cccc(OC4CCCC4)c3C2=O)cc1 (stereo not shown) [ALB-113566] | 1.96 |  |  |
| 6.68 | CC(CBr)c1ccc(N2Cc3ccccc3C2=O)cc1 (stereo not shown) [ALB-113651] | 1.44 |  |  |
| 6.85 | CC(C(=O)O)c1ccc(N2Cc3cc(F)ccc3C2=O)cc1 (stereo not shown) [ALB-113754] | 1.7 |  |  |
| 4.80 | CCCc1cccc2c1C(=O)N(c1ccc(C(C)C(=O)O)cc1)C2 (stereo not shown) [ALB-113756] | 1.33 |  |  |
| 5.85 | CC(CN1CCOCC1)c1ccc(N2Cc3ccccc3C2=O)cc1 (stereo not shown) [ALB-113758] | 1.29 |  |  |
| 6.29 | CCCCCOc1ccc2c(c1)CN(c1ccc(C(C)C(=O)O)cc1)C2=O (stereo not shown) [ALB-113759] | 1.22 |  |  |
| 6.26 | CC(C(=O)O)c1ccc(N2Cc3ccc(F)cc3C2=O)cc1 (stereo not shown) [ALB-113836] | 1.78 |  |  |
| 7.10 | C=Cc1ccc2c(c1)C(=O)N(c1ccc(C(C)C(=O)O)cc1)C2 (stereo not shown) [ALB-113965] | 1.83 |  |  |
| 6.18 | CC(C(=O)O)c1ccc(N2Cc3ccc(OCC(F)(F)F)cc3C2=O)cc1 (stereo not shown) [ALB-113966] | 1.78 |  |  |
| 7.06 | C/C=C/c1ccc2c(c1)C(=O)N(c1ccc(C(C)C(=O)O)cc1)C2 (stereo not shown) [ALB-114086] | 1.99 |  |  |
| 6.65 | C/C=C(\C)c1ccc2c(c1)C(=O)N(c1ccc(C(C)C(=O)O)cc1)C2 (stereo not shown) [ALB-114087] | 1.88 |  |  |
| 7.11 | CCC(C)c1ccc2c(c1)C(=O)N(c1ccc(C(C)C(=O)O)cc1)C2 (stereo not shown) [ALB-114088] | 2.19 |  |  |
| 6.04 | C/C=C\c1ccc2c(c1)C(=O)N(c1ccc(C(C)COC)cc1)C2 (stereo not shown) [ALB-114089] | 1.55 |  |  |
| 6.67 | CC(CF)c1ccc(N2Cc3ccccc3C2=O)cc1 (stereo not shown) [ALB-114090] | 1.47 |  |  |
| 6.16 | CCCc1ccc2c(c1)C(=O)N(c1ccc(C(C)COC)cc1)C2 (stereo not shown) [ALB-114091] | 1.46 |  |  |
| 5.72 | CC(C(=O)O)c1ccc(N2Cc3ccc(CN4CCOCC4)cc3C2=O)cc1 (stereo not shown) [ALB-114438] | 1.27 |  |  |
| 7.28 | COCc1ccc2c(c1)C(=O)N(c1ccc(C(C)C(=O)O)cc1)C2 (stereo not shown) [ALB-114439] | 1.51 |  |  |
| 6.52 | CC(CN)c1ccc(N2Cc3ccccc3C2=O)cc1 (stereo not shown) [ALB-114604] | 1.39 |  |  |

| pEC50 [1] | SMILES | maximal fold induction [2] | maximal fold induction (SMN2-linked luciferase reporter, average maximum fold increase) | SMN Splice Reporter Assay (Example 10) Avg MaxFold Increase [2] |
| --- | --- | --- | --- | --- |
| 6.74 | COc1ccc2c(c1)C(=O)N(c1ccc(C(C)CO)cc1)C2 (stereo not shown) [ALB-114606] | 1.31 |  |  |
| 7.46 | CC(C(=O)O)c1ccc(N2Cc3ccc(C4CCCC4)cc3C2=O)cc1 (stereo not shown) [ALB-114607] | 1.51 |  |  |
| 7.24 | CC(C(=O)O)c1ccc(N2Cc3ccc(N4CCCC4)cc3C2=O)cc1 (stereo not shown) [ALB-114739a] | 1.55 |  |  |
| 6.09 | CC(CF)c1ccc(N2Cc3ccc(C4CCCC4)cc3C2=O)cc1 (stereo not shown) [ALB-114740] | 1.22 |  |  |
| 7.38 | CCOCc1ccc2c(c1)C(=O)N(c1ccc(C(C)C(=O)O)cc1)C2 (stereo not shown) [ALB-114742] | 1.58 |  |  |
| 6.35 | CCOCc1ccc2c(c1)C(=O)N(c1ccc(C(C)CO)cc1)C2 (stereo not shown) [ALB-114743] | 1.37 |  |  |
| 7.09 | CC(C(=O)O)c1ccc(N2Cc3cc4c(cc3C2=O)OCO4)cc1 (stereo not shown) [ALB-114782] | 1.65 |  |  |
| 6.31 | CCOCc1ccc2c(c1)C(=O)N(c1ccc(C(C)COC)cc1)C2 (stereo not shown) [ALB-114846] | 1.3 |  |  |
| 6.52 | Cc1ccc(N2Cc3ccccc3C2=O)cc1 [ALB-114898] | 1.36 |  |  |
| 7.48 | CCCOc1ccc2c(c1)C(=O)N(c1ccc(C(C)C(=O)O)cc1)C2 (stereo not shown) [ALB-114934] | 1.87 |  |  |
| 6.01 | CC(C)OCC(C)c1ccc(N2Cc3ccccc3C2=O)cc1 (stereo not shown) [ALB-114935] | 1.26 |  |  |
| 6.88 | CC(C)(C)c1ccc(N2Cc3ccccc3C2=O)cc1 [ALB-114936] | 1.41 |  |  |
| 6.53 | CCCc1ccc2c(c1)C(=O)N(c1ccc(C(C)C)cc1)C2 [ALB-114939] | 1.43 |  |  |
| 7.01 | CCc1ccc(N2Cc3ccccc3C2=O)cc1 [ALB-114940] | 1.36 |  |  |
| 6.52 | COCc1ccc2c(c1)C(=O)N(c1ccc(C(C)CO)cc1)C2 (stereo not shown) [ALB-114941] | 1.35 |  |  |
| 6.66 | COCc1ccc2c(c1)C(=O)N(c1ccc(C(C)COC)cc1)C2 (stereo not shown) [ALB-114942] | 1.33 |  |  |
| 5.88 | COCC(C)c1ccc(N2Cc3cc(OC)c(OC)cc3C2=O)cc1 (stereo not shown) [ALB-114943] | 1.35 |  |  |
| 7.28 | O=C1c2ccccc2CN1c1ccc(C2CCCC2)cc1 [ALB-115068] | 1.41 |  |  |
| 6.08 | COCCOc1ccc2c(c1)C(=O)N(c1ccc(C(C)C(=O)O)cc1)C2 (stereo not shown) [ALB-115071] | 1.39 |  |  |
| 7.49 | COCC(C)c1ccc(N2Cc3ccc(C)cc3C2=O)cc1 (stereo not shown) [ALB-115072] |  |  | 1.28 |
| 7.24 | CCc1ccc(N2Cc3ccc(OC)cc3C2=O)cc1 [ALB-115085] | 1.47 |  |  |

Second part, the compound before the results:

| SMILES | pEC50 [1] | maximal fold induction [2] | maximal fold induction (SMN2-linked luciferase reporter, average maximum fold increase) | SMN Splice Reporter Assay (Example 10) Avg MaxFold Increase [2] |
| --- | --- | --- | --- | --- |
| CCCCCc1ccc2c(c1)C(=O)N(c1ccc(C(C)C(=O)O)cc1)C2 (stereo not shown) [ALB-113388] | 5.95 | 1.77 |  |  |
| COCC(C)c1ccc(N2Cc3ccccc3C2=O)cc1 (stereo not shown) [ALB-113389] | 6.75 | 1.34 |  |  |
| C=Cc1ccc2c(c1)CN(c1ccc(C(C)C(=O)O)cc1)C2=O (stereo not shown) [ALB-113390] | 4.98 | 1.29 |  |  |
| CCOc1cccc2c1C(=O)N(c1ccc(C(C)C(=O)O)cc1)C2 (stereo not shown) [ALB-113391] | 4.82 | 1.46 |  |  |
| CC(C)Oc1cccc2c1C(=O)N(c1ccc(C(C)C(=O)O)cc1)C2 (stereo not shown) [ALB-113392] | 5.31 | 1.65 |  |  |
| C=Cc1cccc2c1C(=O)N(c1ccc(C(C)C(=O)O)cc1)C2 (stereo not shown) [ALB-113393] | 6.68 | 1.21 |  |  |
| CCc1cccc2c1C(=O)N(c1ccc(C(C)C(=O)O)cc1)C2 (stereo not shown) [ALB-113395] | 5.73 | 1.49 |  |  |
| CCc1ccc2c(c1)CN(c1ccc(C(C)C(=O)O)cc1)C2=O (stereo not shown) [ALB-113490] | 6.66 | 1.48 |  |  |
| CCCCCc1ccc2c(c1)CN(c1ccc(C(C)C(=O)O)cc1)C2=O (stereo not shown) [ALB-113491] |  | 1.12 |  |  |
| CC(C)Oc1ccc2c(c1)C(=O)N(c1ccc(C(C)C(=O)O)cc1)C2 (stereo not shown) [ALB-113492] | 7.62 | 1.67 |  |  |
| CC(C(=O)O)c1ccc(N2Cc3ccc(OC4CCCC4)cc3C2=O)cc1 (stereo not shown) [ALB-113493] | 7.09 | 1.89 |  |  |
| CC(=O)c1cccc2c1C(=O)N(c1ccc(C(C)C(=O)O)cc1)C2 (stereo not shown) [ALB-113496] |  | 1.18 |  |  |
| CCCCCc1cccc2c1C(=O)N(c1ccc(C(C)C(=O)O)cc1)C2 (stereo not shown) [ALB-113497] |  | 1.18 |  |  |
| CC(C(=O)O)c1ccc(N2Cc3cc(O)ccc3C2=O)cc1 (stereo not shown) [ALB-113560] |  | 1.05 |  |  |
| CC(C)c1ccc2c(c1)CN(c1ccc(C(C)C(=O)O)cc1)C2=O (stereo not shown) [ALB-113561] |  | 1.21 |  |  |
| CCCc1ccc2c(c1)CN(c1ccc(C(C)C(=O)O)cc1)C2=O (stereo not shown) [ALB-113564] |  | 1.05 |  |  |
| CC(C)c1cccc2c1C(=O)N(c1ccc(C(C)C(=O)O)cc1)C2 (stereo not shown) [ALB-113565] |  | 1.19 |  |  |

| SMILES | pEC50 [1] | maximal fold induction [2] | maximal fold induction (SMN2-linked luciferase reporter, average maximum fold increase) | SMN Splice Reporter Assay (Example 10) Avg MaxFold Increase [2] |
| --- | --- | --- | --- | --- |
| CC(C(=O)O)c1ccc(N2Cc3cc(N(C)C)ccc3C2=O)cc1 (stereo not shown) [ALB-113646] |  | 1.05 |  |  |
| CC(C(=O)O)c1ccc(N2Cc3cc(NS(C)(=O)=O)ccc3C2=O)cc1 (stereo not shown) [ALB-113647] |  |  | 1.11 |  |
| CCOc1ccc2c(c1)CN(c1ccc(C(C)C(=O)O)cc1)C2=O (stereo not shown) [ALB-113649] |  | 1.13 |  |  |
| CCCCc1cccc2c1C(=O)N(c1ccc(C(C)C(=O)O)cc1)C2 (stereo not shown) [ALB-113757] |  | 1.18 |  |  |
| CC(C)Oc1ccc2c(c1)CN(c1ccc(C(C)C(=O)O)cc1)C2=O (stereo not shown) [ALB-113834] |  | 1.1 |  |  |
| CCCCc1ccc2c(c1)CN(c1ccc(C(C)C(=O)O)cc1)C2=O (stereo not shown) [ALB-113835] |  | 1.15 |  |  |
| CC(C(=O)O)c1ccc(N2Cc3cc(OC4CCCC4)ccc3C2=O)cc1 (stereo not shown) [ALB-113963] |  | 1.14 |  |  |
| CC(C(=O)O)c1ccc(N2Cc3cc(OCC(F)(F)F)ccc3C2=O)cc1 (stereo not shown) [ALB-113964] |  | 1.08 |  |  |
| COc1cc2c(cc1OC)C(=O)N(c1ccc(C(C)C(=O)O)cc1)C2 (stereo not shown) [ALB-114437] |  | 1.2 |  |  |
| CC(C(=O)O)c1ccc(N2Cc3ccc(CN(C)C)cc3C2=O)cc1 (stereo not shown) [ALB-114608] |  | 1.23 |  |  |
| CC(C(=O)O)c1ccc(N2Cc3ccc(N4CCOCC4)cc3C2=O)cc1 (stereo not shown) [ALB-114738a] |  | 1.08 |  |  |
| CC(C)OCc1ccc2c(c1)C(=O)N(c1ccc(C(C)C(=O)O)cc1)C2 (stereo not shown) [ALB-114741] |  | 1.67 |  |  |
| CCOCC(C)c1ccc(N2Cc3ccccc3C2=O)cc1 (stereo not shown) [ALB-114744] |  | 1.18 |  |  |
| COCC(C)c1ccc(N2Cc3ccc(C4CCCC4)cc3C2=O)cc1 (stereo not shown) [ALB-114845] |  | 1.15 |  |  |
| COCC(C)c1ccc(N2Cc3ccc(COC(C)C)cc3C2=O)cc1 (stereo not shown) [ALB-114847] |  | 1.23 |  |  |
| COCCc1ccc(N2Cc3ccccc3C2=O)cc1 [ALB-115073] |  | 1.19 |  |  |

— US8110681B2, “Compounds for the treatment of spinal muscular atrophy and other uses” (The United States of America as represented by the …, priority 2006, dated 2012)
